Measured values from patent US20230399312A1, “SUBSTITUTED PYRIMIDINES AND METHODS OF USE” (THERAVANCE BIOPHARMA R&D IP, LLC, priority 2020, published 2023).

Legend:
[1] = tested on: TGF-β-stimulated SMAD3 phosphorylation in BEAS-2B cells; assay: Cellular ALK5 potency assay, inhibition of TGF-β stimulated pSMAD3 formation in BEAS-2B cells; type: cell-based; details: Homo sapiens, pSMAD3, TGF-β 10 ng/mL, read-out: BEAS2B pIC50 (converted)
In short: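 Human lung epithelial BEAS-2B cells were preincubated 1 h at 37 °C with compound in HBSS/HEPES/1% BSA, then stimulated 30 min with 10 ng/mL TGF-β. pSMAD3 in lysates was quantified by AlphaLISA relative to untreated stimulated cells; reported as pIC50.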

[2] = target: T1, recombinant human ALK5 (TGF-βR1) protein (Homo sapiens, UniProt P36897); assay: Biochemical ALK5 (TGF-βR1) assay to measure pKi (LANCE Ultra ULight kinase assay); details: apparent pKi, converted from pIC50 by Cheng-Prusoff
T1 construct: purchased Life Technologies PR9075A
T1 sequence (P36897 34-503): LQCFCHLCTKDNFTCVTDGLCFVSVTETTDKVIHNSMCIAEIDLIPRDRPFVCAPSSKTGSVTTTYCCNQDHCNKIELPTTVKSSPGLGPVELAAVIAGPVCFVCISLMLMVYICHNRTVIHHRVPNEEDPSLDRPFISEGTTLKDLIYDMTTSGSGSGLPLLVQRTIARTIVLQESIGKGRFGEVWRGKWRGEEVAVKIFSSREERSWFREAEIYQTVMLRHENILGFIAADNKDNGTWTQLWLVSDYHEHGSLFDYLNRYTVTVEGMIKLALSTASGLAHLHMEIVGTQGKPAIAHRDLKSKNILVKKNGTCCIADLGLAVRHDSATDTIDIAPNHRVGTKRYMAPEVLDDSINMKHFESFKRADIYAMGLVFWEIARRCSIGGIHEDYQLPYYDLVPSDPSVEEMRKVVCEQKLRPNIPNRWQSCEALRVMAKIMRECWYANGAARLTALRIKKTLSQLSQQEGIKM
In short: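 Read-out was LANCE Ultra TR-FRET with a europium anti-phospho-Topo IIα Thr1342 antibody after EDTA quench. Kinase reaction ran 60 min at 37 °C with ATP added from a 125 μM 5× stock, after 60 min compound–enzyme equilibration at room temperature. Values are pKi from Cheng-Prusoff conversion of fitted pIC50.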

Row | Structure (SMILES) | IC50 [1] | Ki [2]
1 | Cc1cccc(-c2nccc(Nc3ccnc(Nc4csc(C(=O)OC[C@@H]5CCCCN5)c4)n3)n2)n1 [Compound 639, [(2S)-2-piperidyl]methyl 4-[[4-[[2-(6-methyl-2-pyridyl)pyrimidin-4-yl]amino]pyrimidin-2-yl]amino]thiophene-2-carboxylate] | 25.1 to 158 nM | 0.0398 to 0.316 nM
2 | Cc1cccc(-c2nccc(Nc3ccnc(Nc4cncc(C(=O)OC[C@H]5CCCCN5)c4)n3)n2)n1 [Compound 641, [(2R)-2-piperidyl]methyl 5-[[4-[[2-(6-methyl-2-pyridyl)pyrimidin-4-yl]amino]pyrimidin-2-yl]amino]pyridine-3-carboxylate] | 25.1 to 158 nM | 0.398 to 3.16 nM
3 | Cc1cccc(-c2nccc(Nc3ccnc(Nc4cncc(CN5CC(C(=O)O[C@@H]6CCNC6)C5)c4)n3)n2)n1 [Compound 642, [(3R)-pyrrolidin-3-yl] 1-[[5-[[4-[[2-(6-methyl-2-pyridyl)pyrimidin-4-yl]amino]pyrimidin-2-yl]amino]-3-pyridyl]methyl]azetidine-3-carboxylate] | 25.1 to 158 nM | 0.0398 to 0.316 nM
4 | Cc1cccc(-c2cccc(Nc3ccnc(Nc4ccc(N5CCOCC5)cc4)n3)n2)n1 [Compound 1000, N4-[6-(6-methyl-2-pyridyl)-2-pyridyl]-N2-(4-morpholinophenyl)pyrimidine-2,4-diamine] | 25.1 to 158 nM | 3.98 to 31.6 nM
5 | Cc1cccc(-c2cc(Nc3ccnc(Nc4ccc(N5CCOCC5)cc4)n3)c3cc[nH]c3n2)n1 [Compound 1001, N4-[6-(6-methyl-2-pyridyl)-1H-pyrrolo[2,3-b]pyridin-4-yl]-N2-(4-morpholinophenyl)pyrimidine-2,4-diamine] | 200 to 1260 nM | 0.398 to 3.16 nM
6 | Cc1cccc(-c2nc(Nc3ccnc(Nc4ccc(N5CCOCC5)cc4)n3)ccc2C#N)n1 [Compound 1003, 2-(6-methyl-2-pyridyl)-6-[[2-(4-morpholinoanilino)pyrimidin-4-yl]amino]pyridine-3-carbonitrile] | 200 to 1260 nM | 3.98 to 31.6 nM
7 | CCNC(=O)Cc1cc(Nc2ccnc(Nc3ccc(N4CCNCC4)cc3)n2)nc(-c2cccc(C)n2)n1 [Compound 1006, N-ethyl-2-[2-(6-methyl-2-pyridyl)-6-[[2-(4-piperazin-1-ylanilino)pyrimidin-4-yl]amino]pyrimidin-4-yl] acetamide] | 200 to 1260 nM | 0.398 to 3.16 nM
8 | Cc1cccc(-c2nc(CC(=O)NCC(C)C)cc(Nc3ccnc(Nc4ccc(N5CCNCC5)cc4)n3)n2)n1 [Compound 1009, N-isobutyl-2-[2-(6-methyl-2-pyridyl)-6-[[2-(4-piperazin-1-ylanilino)pyrimidin-4-yl]amino]pyrimidin-4-yl] acetamide] | 200 to 1260 nM | 0.398 to 3.16 nM
9 | COC(=O)c1cc(Nc2ccnc(Nc3ccc(N4CCN(C)CC4)cc3)n2)nc(-c2cccc(C)n2)n1 [Compound 1010, methyl 6-[[2-[4-(4-methylpiperazin-1-yl)anilino]pyrimidin-4-yl]amino]-2-(6-methyl-2-pyridyl)pyrimidine-4-carboxylate] | 200 to 1260 nM | 0.0398 to 0.316 nM
10 | Cc1cccc(-c2nc(Nc3ccnc(Nc4ccc(N5CCNCC5)cc4)n3)cc(-c3c[nH]nn3)n2)n1 [Compound 1012, N4-[2-(6-methyl-2-pyridyl)-6-(1H-triazol-4-yl)pyrimidin-4-yl]-N2-(4-piperazin-1-ylphenyl)pyrimidine-2,4-diamine] | 1580 to 10000 nM | 0.0398 to 0.316 nM
11 | Fc1ccc(Cl)cc1-c1ncc(C2CC2)c(Nc2ccnc(Nc3ccc(N4CCNCC4)cc3)n2)n1 [Compound 1013, N4-[2-(5-chloro-2-fluoro-phenyl)-5-cyclopropyl-pyrimidin-4-yl]-N2-(4-piperazin-1-ylphenyl)pyrimidine-2,4-diamine] | 200 to 1260 nM | 0.0398 to 0.316 nM
12 | Cc1cccc(-c2nc(Nc3ccnc(Nc4ccc(N)cc4)n3)c3cccn3n2)n1 [Compound 1015, N2-(4-aminophenyl)-N4-[2-(6-methyl-2-pyridyl)pyrrolo[2,1-f][1,2,4]triazin-4-yl]pyrimidine-2,4-diamine] | 25.1 to 158 nM | 0.0398 to 0.316 nM
13 | Cc1cccc(-c2nc(Nc3ccnc(Nc4ccc(NCC5CNC5)cc4)n3)c3cccn3n2)n1 [Compound 1016, N2-[4-(azetidin-3-ylmethylamino)phenyl]-N4-[2-(6-methyl-2-pyridyl)pyrrolo[2,1-f][1,2,4]triazin-4-yl]pyrimidine-2,4-diamine] | 25.1 to 158 nM | 0.0398 to 0.316 nM
14 | Cc1cccc(-c2nc(Nc3ccnc(Nc4cccc(C(=O)O)c4)n3)c3cccn3n2)n1 [Compound 1017, 3-[[4-[[2-(6-methyl-2-pyridyl)pyrrolo[2,1-f][1,2,4]triazin-4-yl]amino]pyrimidin-2-yl]amino]benzoic acid] | 200 to 1260 nM | 0.398 to 3.16 nM
15 | Cc1cccc(-c2nc(Nc3ccnc(Nc4ccc(CC(=O)O)cc4)n3)c3cccn3n2)n1 [Compound 1018, 2-[4-[[4-[[2-(6-methyl-2-pyridyl)pyrrolo[2,1-f][1,2,4]triazin-4-yl]amino]pyrimidin-2-yl]amino]phenyl]acetic acid] | 25.1 to 158 nM | 0.0398 to 0.316 nM
16 | COC(=O)Cc1ccc(Nc2nccc(Nc3nc(-c4cccc(C)n4)nn4cccc34)n2)cc1 [Compound 1019, methyl 2-[4-[[4-[[2-(6-methyl-2-pyridyl)pyrrolo[2,1-f][1,2,4]triazin-4-yl]amino]pyrimidin-2-yl]amino]phenyl]acetate] | 200 to 1260 nM | 0.398 to 3.16 nM
17 | Cc1cccc(-c2nc(Nc3ccnc(Nc4ccc(C(=O)O)cn4)n3)c3cccn3n2)n1 [Compound 1020] | 200 to 1260 nM | 3.98 to 31.6 nM
18 | Cc1cccc(-c2nc(Nc3ccnc(Nc4ccc(C(=O)O)cc4)n3)c3cccn3n2)n1 [Compound 1021, 4-[[4-[[2-(6-methyl-2-pyridyl)pyrrolo[2,1-f][1,2,4]triazin-4-yl]amino]pyrimidin-2-yl]amino]benzoic acid] | 25.1 to 158 nM | 0.398 to 3.16 nM
19 | Cc1cccc(-c2nc(Nc3ccnc(Nc4nc(C(=O)O)cs4)n3)c3cccn3n2)n1 [Compound 1022, 2-[[4-[[2-(6-methyl-2-pyridyl)pyrrolo[2,1-f][1,2,4]triazin-4-yl]amino]pyrimidin-2-yl]amino]thiazole-4-carboxylic acid] | 200 to 1260 nM | 0.398 to 3.16 nM
20 | Cc1cccc(-c2nc(Nc3ccnc(Nc4csc(C(=O)O)c4)n3)c3cccn3n2)n1 [Compound 1023, 4-[[4-[[2-(6-methyl-2-pyridyl)pyrrolo[2,1-f][1,2,4]triazin-4-yl]amino]pyrimidin-2-yl]amino]thiophene-2-carboxylic acid] | 200 to 1260 nM | 0.398 to 3.16 nM
21 | COC(=O)c1ccc(Nc2nccc(Nc3nc(-c4cccc(C)n4)nn4cccc34)n2)cn1 [Compound 1024, methyl 5-[[4-[[2-(6-methyl-2-pyridyl)pyrrolo[2,1-f][1,2,4]triazin-4-yl]amino]pyrimidin-2-yl]amino]pyridine-2-carboxylate] | 25.1 to 158 nM | 0.0398 to 0.316 nM
22 | Cc1cccc(-c2nc(Nc3ccnc(Nc4cc(C(=O)O)cs4)n3)c3cccn3n2)n1 [Compound 1025, 5-[[4-[[2-(6-methyl-2-pyridyl)pyrrolo[2,1-f][1,2,4]triazin-4-yl]amino]pyrimidin-2-yl]amino]thiophene-3-carboxylic acid] | 25.1 to 158 nM | 0.0398 to 0.316 nM
